Literature values as cited in patent US20110275591A1, “COCKTAIL FOR MODULATION OF ALZHEIMER'S DISEASE” (Concourse Health Sciences LLC, priority 2004, published 2011).
Blank lines part the entries; values can stand above or below the molecule they belong to.

Experiments:
[1] = system: patients with probable AD; conditions: after 3 and 6 months of treatment; significant differences only for a subset of cognitive tasks
[2] = system: SAMP8 mouse; conditions: for cognition in T-maze footshock avoidance paradigm and lever press appetitive task: chronic administration
[3] = system: children with autistic spectrum disorders; conditions: 8-week study; all p<0.05
[4] = system: cultured hippocampal neurons
[5] = system: Alzheimer transgenic mice; conditions: dietary curcumin
[6] = system: diabetic rats
[7] = system: primary neurons of rat cerebral cortex; conditions: MTT and propidium iodide assays
[8] = co-treatment during 48-hour Aβ exposure, vs controls with no EGCG

Molecule: CC(=O)N[C@@H](CS)C(=O)O [NAC, N-Acetylcysteine, reference compound]
- efficacy outcome measures (cognitive tasks) [1]: beneficial results on nearly every outcome measure
- cognition in T-maze footshock avoidance paradigm and lever press appetitive task ([2]; 12-month-old SAMP8 mice): improved cognition
- blood-brain barrier passage ([2]; SAMP8 mice): crossed the blood-brain barrier and accumulated in the brain

Molecule: NCCC(=O)N[C@@H](Cc1cnc[nH]1)C(=O)O [L-carnosine, b-alanyl-L-histidine]
- Gilliam Autism Rating Scale and Receptive One-Word Picture Vocabulary test [3]: statistically significant improvements

- levels of caspase C [4, 8]: decreased
Molecule: Epigallocatechin-3-gallate [EGCG]
- cell survival ([4]; Aβ-exposed neurons, vs controls): increased survival
- levels of malondiadehyde [4, 8]: decreased

Molecule: COc1cc(/C=C/C(=O)CC(=O)/C=C/c2ccc(O)c(OC)c2)ccc1O [curcumin, Curcumin]
- levels of interleukin-1 beta [5]: decreased levels
- levels of oxidized proteins [5]: decreased levels
- microgliosis [5]: suppression
- lipid peroxidation products (indicators of oxidative stress) ([6]; curcumin fed rats): significant reduction
- accumulation of advanced glycation endproducts ([6]; dietary curcumin 200 mg/kg body weight, vs control diabetic rats without curcumin): prevents the accumulation

Molecule: O=C(O)CCCCC1CCSS1 (stereo not drawn) [ALA, Alpha lipoic acid]
- protection against cytotoxicity induced by Aβ peptide ([7]; Aβ peptide 30 microM): protected cortical neurons against cytotoxicity
- protection against cytotoxicity induced by H2O2 ([7]; H2O2 100 microM): protected cortical neurons against cytotoxicity
- indexes of oxidative stress (protein carbonyls, TBARS, W/S ratio of MAL-6) ([2]; 12-month-old SAMP8 mice): reversed all three indexes of oxidative stress
- cognition in T-maze footshock avoidance paradigm and lever press appetitive task ([2]; 12-month-old SAMP8 mice): improved cognition
